From ChEMBL document CHEMBL1255168, “1-Aryl-3-(1-acylpiperidin-4-yl)urea inhibitors of human and murine soluble epoxide hydrolase: structure-activity relationships, pharmacokinetics, and reduction of inflammatory pain” (J Med Chem, 2010)

Assays:
[1] = molecular target: T1, Bifunctional epoxide hydrolase 2 (Mus musculus, UniProt P34914)
T1 sequence (P34914 whole entry): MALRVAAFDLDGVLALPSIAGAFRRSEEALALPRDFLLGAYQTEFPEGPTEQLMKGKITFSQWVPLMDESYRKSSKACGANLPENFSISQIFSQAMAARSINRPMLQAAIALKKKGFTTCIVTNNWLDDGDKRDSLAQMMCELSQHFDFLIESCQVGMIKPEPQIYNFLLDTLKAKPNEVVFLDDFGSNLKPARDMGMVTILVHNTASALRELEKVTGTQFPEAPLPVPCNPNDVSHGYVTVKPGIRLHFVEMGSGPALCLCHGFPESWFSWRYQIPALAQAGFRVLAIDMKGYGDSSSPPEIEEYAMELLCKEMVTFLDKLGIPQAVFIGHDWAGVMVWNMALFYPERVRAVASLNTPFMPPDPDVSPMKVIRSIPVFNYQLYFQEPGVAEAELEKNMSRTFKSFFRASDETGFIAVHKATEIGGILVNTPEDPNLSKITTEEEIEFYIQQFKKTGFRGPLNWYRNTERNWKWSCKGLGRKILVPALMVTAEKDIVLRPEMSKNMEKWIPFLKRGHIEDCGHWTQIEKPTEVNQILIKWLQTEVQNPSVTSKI
Description: Inhibition of mouse recombinant soluble epoxide hydrolase by fluorescence assay

[2] = molecular target: T2, Bifunctional epoxide hydrolase 2 (Homo sapiens, UniProt P34913)
T2 sequence (P34913 whole entry): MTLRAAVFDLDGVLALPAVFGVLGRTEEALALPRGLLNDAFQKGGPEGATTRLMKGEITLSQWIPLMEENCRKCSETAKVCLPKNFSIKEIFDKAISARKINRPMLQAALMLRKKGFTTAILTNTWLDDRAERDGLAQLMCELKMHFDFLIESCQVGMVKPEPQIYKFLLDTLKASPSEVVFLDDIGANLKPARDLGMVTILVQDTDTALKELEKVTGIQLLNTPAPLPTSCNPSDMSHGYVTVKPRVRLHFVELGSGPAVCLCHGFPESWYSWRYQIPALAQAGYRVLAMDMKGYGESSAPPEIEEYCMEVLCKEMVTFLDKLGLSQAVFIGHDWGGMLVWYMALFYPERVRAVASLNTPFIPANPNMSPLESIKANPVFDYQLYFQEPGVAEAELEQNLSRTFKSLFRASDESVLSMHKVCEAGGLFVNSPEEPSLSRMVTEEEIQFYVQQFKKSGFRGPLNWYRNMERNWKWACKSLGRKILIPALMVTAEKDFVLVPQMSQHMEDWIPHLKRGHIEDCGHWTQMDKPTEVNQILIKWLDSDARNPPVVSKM
Description: Inhibition of human recombinant soluble epoxide hydrolase by fluorescence assay

IC50 [1] [nM] | IC50 [2] [nM] | Compound
18 | 1.5 | O=C(Nc1ccc(OC(F)(F)F)cc1)NC1CCN(C(=O)CN2CCN(Cc3ccccc3)CC2)CC1
100 | 61 | CCC(=O)N1CCC(NC(=O)Nc2ccc3c(c2)OCO3)CC1
– | > 5000 | CCC(=O)N1CCC(NC(=O)Nc2cc(OC)c(OC)c(OC)c2)CC1
64 | 140 | CCC(=O)N1CCC(NC(=O)Nc2ccc(C(=O)OC)cc2)CC1
